Activity calls are given as the source filed them. The calls are words filed in the database; no cut-off is given here.
Key:
Pseudomonas aeruginosa = experiment: Antibacterial activity against Pseudomonas aeruginosa PAO1 by disc diffusion method; assay type: functional
[1] = Solubility of the compound in aqueous medium; assay type: physicochemical; conditions: buffer
[2] = Solubility of the compound in physiological medium; assay type: physicochemical

CC(=O)NC[C@H]1CN(c2ccc(N3CCN(C(=O)CNC(=O)OCCOCCOCC(=O)NCCCN4C([C@H]5CSC(c6ccccc6O)=N5)SC[C@H]4C(=O)O)CC3)c(F)c2)C(=O)O1 (stereo partly drawn)
Activity (Pseudomonas aeruginosa): inactive | solubility [1]: Insoluble | solubility [2]: Insoluble

CC(=O)NC[C@H]1CN(c2ccc(N3CCN(C(=O)OCCOCCOCC(=O)NCCCN4C([C@H]5CSC(c6ccccc6O)=N5)SC[C@H]4C(=O)O)CC3)c(F)c2)C(=O)O1 (stereo partly drawn)
Activity (Pseudomonas aeruginosa): inactive | solubility [1]: Insoluble | solubility [2]: Insoluble

CC(=O)NC[C@H]1CN(c2ccc(N3CCN(C(=O)CCC(=O)NCCCN4C([C@H]5CSC(c6ccccc6O)=N5)SC[C@H]4C(=O)O)CC3)c(F)c2)C(=O)O1 (stereo partly drawn)
Activity (Pseudomonas aeruginosa): inactive | solubility [2]: Insoluble
